Assay results: US8163939B2, “Ascorbic acid derivative or salt thereof, production method thereof, and cosmetic” (Seikwa Kasei Company, Limited, priority 2007, dated 2012)

Legend:
[1] = system: Normal human dermal fibroblasts; experiment: Collagen production of human fibroblast (Sircol collagen assay, 100 μM, 48 hours); assay type: cell-based; conditions: cultured 48 hours; for activity at 100 µM: Homo sapiens, Fibroblast, N=4, read-out: Collagen production promoting effect (collagen production amount, % of control group); for Collagen production promoting effect (collagen production amount, % of control group): N=4
Method: (§1) Normal human dermal fibroblasts were regulated with a 10% (v/v) fetal bovine serum (manufactured by Roshe Diagnostics)-containing D-MEM so as to give a cell density of 2.5×10^4 cells/well, then, pre-incubation for 24 hours was performed on a 96-well plate. After the medium was removed, a sample regulated with a 5% (v/v) fetal bovine serum-containing D-MEM to a concentration of 100 μM was added to each well, then, cultured for 48 hours under 37° C. and 5% CO2. After completion of culturing, the amount of free collagen was measured using Sircol collagen assay kit (manufactured by Biocolor). The measurement was carried out at N=4.
The collagen production amount in measuring a sample at a concentration of 100 μM was compared with the control group, and the results thereof (% value when the control group is 100%) are shown in Tables 44 and 45 based on the following standard.

B16 melanoma 4A5 cell = experiment: Whitening test: theophylline-induced melanine production in B16 melanoma 4A5 cells; assay type: cell-based, mouse; conditions: sample at a concentration of 100 μM or less; theophylline-induced melanine production; 3 days culture; N=4;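 note: grades: ± under 20% + 20-40% ++ 40-70% +++ 70-100% suppression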
Method: As a test for a whitening effect, evaluation of the action of B16 melanoma 4A5 cell on theophylline-induced melanine production was carried out on an ascorbic acid derivative of the present invention, according to the following procedure. The same evaluation was carried out also on ascorbic acid, known compounds: ascorbic acid salts, and ascorbic acid derivatives, as comparison. The results are shown in Tables 38 to 40. • (1) B16 mouse melanoma 4A5 strain was sowed onto a 48-well plate at a cell density of 2.0×10^4 cells/well. • (2) Culturing was performed for 24 hours with Dulbecco's Modified Eagle's medium (manufactured by SIGMA. Hereinafter, abbreviated as D-MEM) containing 10% fetal bovine serum (manufactured by Roshe Diagnostics). Then, it was changed to 0.2 mM theophylline and a 10% fetal bovine serum-containing D-MEM which contains a sample of given concentration. • (3) After culturing for 3 days in the co-existence of a sample, the medium was removed using an aspirator. Then, after distilled water was added, cells were broken by an ultrasonic wave. • (4) Thereafter, the amount of protein was determined using BCA protein assay kit (manufactured by PIERCE), and the produced amount of melanine was measured by an alkali solubilizing method. To the cell-destructed solution was added sodium hydroxide so as to give a final concentration of 2N and the mixture was dissolved by heating (60° C., 15 minutes), then, the absorbance at 450 nm was measured using a micro plate reader. The melanine amount was calculated from a calibration curve made using synthetic melanine (SIGMA) as a standard. The melanine amount per unit protein was calculated by dividing the melanine amount by the protein amount. • (5) The melanine production suppressing rate was calculated according to the following formula. Melanine production suppressing rate (%)=[1−(A−B)/(C−B)]×100 [wherein, A represents the melanine amount per unit protein (g/g) in adding a sample, B represents the melanine amount per unit protein (g/g) in the normal group, and C represents the melanine amount per unit protein (g/g) in the control group.]
In the following Tables, the melanine production suppressing rate in measuring a sample at a concentration of 100 μM or less is expressed as described below. The measurement was carried out at N=4.

[2] = system: Normal human dermal fibroblasts; experiment: Collagen production of human fibroblast 2 (100 μM or 500 μM; 2, 4 and 7 days); assay type: cell-based; conditions: for Collagen production amount in comparison with the control group (% value when the control group is 100%): 100 μM or 500 μM (not stated which), average ± standard error, N=4
Method: as §1
Free collagen was measured under the same conditions as in Test Example 5 excepting that the concentration of each sample was 100 μM or 500 μM and culturing was carried out for 2 days, 4 days and 7 days. The measurement was carried out at N=4, and the average and standard error, in four test examples, of values of the collagen production amount in comparison with the control group (% value when the control group is 100%) are shown in Tables 46 and 47.

[3] = Stability Test 1: 2% aqueous solution, pH7, room temperature, 4 weeks (residual rate, odor, coloration); assay type: physicochemical
Method: (§2) Aqueous solutions (2%) of various test samples were adjusted to pH7 with a dilute sodium hydroxide aqueous solution, and charged into 50 mL screw tubes, and the tubes were sealed and stored at room temperature for 4 weeks. Thereafter, HPLC measurement were performed (using liquid chromatography manufactured by Tosoh Corp.) and the residual rate was obtained based on the peak area. The residual rate, odor(odor change) and degree of coloration were evaluated based on the following methods and standards, and the results are shown in Table 41.
◯: 80% or more and less than 90%
Δ: 60% or more and less than 80%
X: 20% or more and less than 60%
It was evaluated according to the following criterion by 10 panelists.
Based on the evaluation results, classification was conducted as shown below.
◯: total point of 10 panelists is 25 or more
Δ: total point of 10 panelists is 16 to 24
X: total point of 10 panelists is 15 or less
3: almost no change as compared with that immediately after preparation
2: coloration is observed as compared with that immediately after preparation
1: intense coloration is observed as compared with that immediately after preparation

[4] = Stability Test 2: 2% aqueous solution, pH7, 50° C., 4 weeks (residual rate, odor, coloration); assay type: physicochemical
Method: as §2
The same test as in Test Example 2 was carried out excepting that the sample was stored at 50° C. for 4 weeks instead of storing at room temperature for 4 weeks.

[5] = Table 47, culturing period 2 days
[6] = Table 47, culturing period 4 days
[7] = Table 47, culturing period 7 days
[8] = storage period 2 weeks, 10 panelists
[9] = storage period 4 weeks, 10 panelists
[10] = Table 46, culturing period 2 days
[11] = Table 46, culturing period 4 days
[12] = Table 46, culturing period 7 days

With `CCCCCCCCC(O)COC1=C(OCC(O)CO)[C@@H]([C@@H](O)CO)OC1=O` (stereo partly drawn) [Example 29, 3-O-glyceryl-2-O-(2-hydroxydecyl) ascorbic acid] the activity at 100 µM [1] was 100 to 200%, the “Whitening effect (melanine production suppressing rate)” value (from here on “Whitening effect”) (B16 melanoma 4A5 cell) was “+ (20 to 40%:+)” and the “Collagen production amount in comparison with the control group (% value when the control group is 100%)” value [2, 5] was 97 ± 19%. For the same compound, the “Collagen production amount in comparison with the control group (% value when the control group is 100%)” value [2, 6] was 116 ± 7% and the “Collagen production amount in comparison with the control group (% value when the control group is 100%)” value [2, 7] was 138 ± 3%.

With `CCCCCCCCC(O)COC1=C(O)C(=O)O[C@@H]1[C@@H](O)CO` (stereo partly drawn) [Example 46] the “Collagen production promoting effect (collagen production amount, % of control group)” value [1] was “+ (100 to 200%:+)”, the “Whitening effect” value (B16 melanoma 4A5 cell) was “++ (40 to 70%:++)” and the “Collagen production amount in comparison with the control group (% value when the control group is 100%)” value [2, 5] was 152 ± 6%. For the same compound, the “Collagen production amount in comparison with the control group (% value when the control group is 100%)” value [2, 6] was 123 ± 11% and the “Collagen production amount in comparison with the control group (% value when the control group is 100%)” value [2, 7] was 254 ± 10%.

For `O=C1OC(C(O)CO)C(OCC(O)CO)=C1O` (stereo not drawn) [Example 1, 3-O-glyceryl ascorbic acid], the activity at 100 µM [1] was 100 to 200%, the Residual rate ([3]; storage period 0) was “⊚ (⊚: 90% or more)” and the Coloration ([3]; storage period 0, 10 panelists) was “◯ (◯: total point of 10 panelists is 25 or more)”. The Odor ([3]; storage period 0, 10 panelists) was “◯ (◯: total point of 10 panelists is 25 or more)”, the Residual rate ([3]; storage period 2 weeks) was “◯ (◯: 80% or more and less than 90%)” and the Coloration [3, 8] was “◯ (◯: total point of 10 panelists is 25 or more)”. For the same compound, the Odor [3, 8] was “◯ (◯: total point of 10 panelists is 25 or more)”, the Residual rate ([3]; storage period 4 weeks) was “◯ (◯: 80% or more and less than 90%)” and the Coloration [3, 9] was “◯ (◯: total point of 10 panelists is 25 or more)”. The Odor [3, 9] was “◯ (◯: total point of 10 panelists is 25 or more)”, the “Whitening effect” value (B16 melanoma 4A5 cell) was “+ (20 to 40%:+)” and the “Collagen production amount in comparison with the control group (% value when the control group is 100%)” value [2, 10] was 182 ± 7%. For the same compound, the “Collagen production amount in comparison with the control group (% value when the control group is 100%)” value [2, 11] was 209 ± 8% and the “Collagen production amount in comparison with the control group (% value when the control group is 100%)” value [2, 12] was 219 ± 29%.

With `CCCCCCCCOC1=C(OCC(O)CO)[C@@H]([C@@H](O)CO)OC1=O` (stereo partly drawn) [Example 14, 3-O-glyceryl-2-O-octyl ascorbic acid] the activity at 100 µM [1] was 100 to 200%, the Residual rate ([3]; storage period 0) was “⊚ (⊚: 90% or more)” and the Coloration ([3]; storage period 0, 10 panelists) was “◯ (◯: total point of 10 panelists is 25 or more)”. For the same compound, the Odor ([3]; storage period 0, 10 panelists) was “◯ (◯: total point of 10 panelists is 25 or more)”, the Residual rate ([3]; storage period 2 weeks) was “⊚ (⊚: 90% or more)” and the Coloration [3, 8] was “◯ (◯: total point of 10 panelists is 25 or more)”. For the same compound, the Odor [3, 8] was “◯ (◯: total point of 10 panelists is 25 or more)”, the Residual rate ([3]; storage period 4 weeks) was “⊚ (⊚: 90% or more)” and the Coloration [3, 9] was “◯ (◯: total point of 10 panelists is 25 or more)”. For the same compound, the Odor [3, 9] was “◯ (◯: total point of 10 panelists is 25 or more)”, the “Whitening effect” value (B16 melanoma 4A5 cell) was “+++ (70 to 100%:+++)” and the Residual rate ([4]; storage period 0) was “⊚ (⊚: 90% or more)”. The Coloration ([4]; storage period 0, 10 panelists) was “◯ (◯: total point of 10 panelists is 25 or more)”, the Odor ([4]; storage period 0, 10 panelists) was “◯ (◯: total point of 10 panelists is 25 or more)” and the Residual rate ([4]; storage period 2 weeks) was “⊚ (⊚: 90% or more)”. For the same compound, the Coloration [4, 8] was “◯ (◯: total point of 10 panelists is 25 or more)”, the Odor [4, 8] was “◯ (◯: total point of 10 panelists is 25 or more)” and the Residual rate ([4]; storage period 4 weeks) was “⊚ (⊚: 90% or more)”. The Coloration [4, 9] was “◯ (◯: total point of 10 panelists is 25 or more)”, the Odor [4, 9] was “◯ (◯: total point of 10 panelists is 25 or more)” and the “Collagen production amount in comparison with the control group (% value when the control group is 100%)” value [2, 5] was 132 ± 22%. The “Collagen production amount in comparison with the control group (% value when the control group is 100%)” value [2, 6] was 144 ± 9% and the “Collagen production amount in comparison with the control group (% value when the control group is 100%)” value [2, 7] was 238 ± 17%.

With `CCCCCCCCOCC(O)COC1=C(OCC(O)CO)C(C(O)CO)OC1=O` (stereo not drawn) [Example 84] the “Collagen production promoting effect (collagen production amount, % of control group)” value [1] was “+ (100 to 200%:+)”, the “Whitening effect” value (B16 melanoma 4A5 cell) was “+ (20 to 40%:+)” and the “Collagen production amount in comparison with the control group (% value when the control group is 100%)” value [2, 5] was 135 ± 11%. The “Collagen production amount in comparison with the control group (% value when the control group is 100%)” value [2, 6] was 154 ± 8% and the “Collagen production amount in comparison with the control group (% value when the control group is 100%)” value [2, 7] was 201 ± 16%.

With `CCCCOCC(O)COC1=C(OCC)C(C(O)CO)OC1=O` (stereo not drawn) [Example 97] the “Collagen production promoting effect (collagen production amount, % of control group)” value [1] was “+ (100 to 200%:+)”, the “Whitening effect” value (B16 melanoma 4A5 cell) was “+ (20 to 40%:+)” and the “Collagen production amount in comparison with the control group (% value when the control group is 100%)” value [2, 5] was 93 ± 4%. For the same compound, the “Collagen production amount in comparison with the control group (% value when the control group is 100%)” value [2, 6] was 111 ± 4% and the “Collagen production amount in comparison with the control group (% value when the control group is 100%)” value [2, 7] was 139 ± 15%.

For `O=C1O[C@H]([C@@H](O)CO)C([O-])=C1OP(=O)([O-])[O-].O=C1O[C@H]([C@@H](O)CO)C([O-])=C1OP(=O)([O-])[O-].[Mg+2].[Mg+2].[Mg+2]` [magnesium ascorbyl phosphate, reference compound], the “Collagen production promoting effect (collagen production amount, % of control group)” value [1] was “+ (100 to 200%:+)”, the “Whitening effect” value (B16 melanoma 4A5 cell) was “± (<20%:±)” and the “collagen production promoting effect over time (in words)” value ([2]; 100 μM or 500 μM, culturing 2, 4 and 7 days) was “lowers over time”. For the same compound, the “Collagen production amount in comparison with the control group (% value when the control group is 100%)” value [2, 10] was 276 ± 9%, the “Collagen production amount in comparison with the control group (% value when the control group is 100%)” value [2, 11] was 207 ± 24% and the “Collagen production amount in comparison with the control group (% value when the control group is 100%)” value [2, 12] was 191 ± 2%.
